Converted amounts (≈) assume the structure as drawn.
Tested on: Plasmodium falciparum
Assay: Antimalarial activity against blood-stage Plasmodium falciparum 3D7 after 48 hr by Giemsa staining method
Format: functional, organism-based
Settings: 3D7, 48 h

SMILES	IC50
COc1ccc(/C=C/C(=O)c2ccc(N3CCCCC3)cc2)cc1OC	3.13 µg/mL (≈ 8.91 µM)
COc1ccc(/C=C/C(=O)c2ccc(N3CCCC3)cc2)cc1	6.3 µg/mL (≈ 20.5 µM)
COc1cc(/C=C/C(=O)c2ccc(N3CCCC3)cc2)cc(OC)c1OC	13 µg/mL (≈ 35.4 µM)
COc1cc(/C=C/C(=O)c2ccc(N3CCNCC3)cc2)cc(OC)c1OC	9 µg/mL (≈ 23.5 µM)
COc1cc(/C=C/C(=O)c2ccc(-n3cccc3)cc2)cc(OC)c1OC	2.03 µg/mL (≈ 5.59 µM)
COc1cc(/C=C/C(=O)c2ccc(N3CCCC3)cc2)cc(OC)c1	8.43 µg/mL (≈ 25 µM)
COc1ccc(/C=C/C(=O)c2ccc(N3CCOCC3)cc2)cc1	7.9 µg/mL (≈ 24.4 µM)
O=C(/C=C/c1cc2ccccc2nc1Cl)c1ccc(N2CCOCC2)cc1	17 µg/mL (≈ 45 µM)
COc1cc(/C=C/C(=O)c2ccc(-n3ccnc3)cc2)cc(OC)c1OC	2.48 µg/mL (≈ 6.81 µM)
COc1ccc(/C=C/C(=O)c2ccc(-n3cncn3)cc2)cc1	4.56 µg/mL (≈ 14.9 µM)
COc1ccc(/C=C/C(=O)c2ccc(-n3cccc3)cc2)cc1	1.61 µg/mL (≈ 5.31 µM)
